# According to patent US20160176867A1, “MODIFIED BET-PROTEIN-INHIBITING DIHYDROQUINOXALINONES AND DIHYDROPYRIDOPYRAZINONES” (BAYER PHARMA AKTIENGESELLSCHAFT, priority 2013, published 2016):
# Assays:
# [1] = tested on: B16F10 cells; assay: Cell proliferation assay (alamarBlue), B16F10; type: cell-based; settings: Mus musculus, B16-F10; B16F10 (melanoma, BRAF wild-type), 96 hours
# In short: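 B16F10 cells in DMEM with 10% FCS were exposed to seven concentrations from 1E-5 to 1E-8 M for 96 hours at 37 °C. Viability was read with alamarBlue (ex 530/em 590 nm), and day-0 signal was subtracted. IC50 was derived relative to buffer-treated cells.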
# [2] = target: T1, BRD4 bromo domain 1 [BRD4(1)] (Homo sapiens, UniProt O60885); assay: BRD4/acetylated peptide H4 binding assay (TR-FRET), BRD4 bromo domain 1; settings: inhibition of BRD4(1)/Ac-H4 peptide interaction
# T1 construct: N-terminally His6-tagged BRD4(1) (amino acids 67-152); made in house; host or cells: E. coli
# In short: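 TR-FRET (665/620 nm ratio) measuring displacement of biotinylated tetra-acetylated H4 peptide from His6-BRD4(1) (aa 67-152, E. coli; typically 10 nM) at pH 7.5. Compound (11 concentrations, 0.1 nM–20 μM, duplicates) was preincubated 10 min at 22°C, then 1 h at 22°C and ≥3 h at 4°C; IC50 from 4-parameter fit normalized to DMSO and no-BRD4 controls.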
# [3] = tested on: MOLM-13 cells; assay: Cell proliferation assay (alamarBlue), MOLM-13; type: cell-based; settings: Homo sapiens; MOLM-13 (acute myeloid leukaemia), 96 hours
# In short: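 Cells in RPMI1640 with 10% FCS, read by alamarBlue fluorescence (ex 530, em 590 nm) after overnight plating and again after 96 h compound exposure at 37° C (1E-5 to 1E-8 M). Baseline-subtracted signal compared with buffer-treated cells to derive IC50.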
# [4] = tested on: MOLP-8 cells; assay: Cell proliferation assay (alamarBlue), MOLP-8; type: cell-based; settings: Homo sapiens; MOLP-8 (multiple myeloma), 120 hours
# In short: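 MOLP-8 cells plated at 4000 cells/well in RPMI1640 with 20% FCS, read after overnight culture, then treated with dilutions from 1E-5 to 1E-8 M for 120 hours at 37° C. Viability by alamarBlue fluorescence (ex 530/em 590 nm); initial reads subtracted, compared with buffer-treated cells, and IC50 calculated for 50% proliferation inhibition.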
Compound,IC50 [1],IC50 [2],IC50 [3],IC50 [4]
"C[C@@H]1C(=O)N(C)c2ccc(Nc3cccc(S(=O)(=O)N4CCN(C)CC4)c3)nc2N1C1CCOCC1 [Example 12, (3R)-1,3-Dimethyl-6-({3-[(4-methylpiperazin-1-yl)sulphonyl]phenyl}amino)-4-(tetrahydro-2H-pyran-4-yl)-3,4-dihydropyrido[2,3-b]pyrazin-2(1H)-one]",0.544 µM,0.056 µM,0.195 µM,0.126 µM
"C[C@@H]1C(=O)N(C)c2ccc(Nc3cccc(S(=O)(=O)NC4CCN(C)CC4)c3)nc2N1Cc1ccccc1 [Example 33, 3-{[(3R)-4-benzyl-1,3-dimethyl-2-oxo-1,2,3,4-tetrahydropyrido[2,3-b]pyrazin-6-yl]amino}-N-(1-methylpiperidin-4-yl)benzenesulphonamide]",0.157 µM,0.022 µM,0.016 µM,0.012 µM
"C[C@@H]1C(=O)N(C)c2ccc(Nc3cccc(S(=O)(=O)NC4CCN(C)CC4)c3)nc2N1C1CCCCCC1 [Example 48, 3-{[(3R)-4-cycloheptyl-1,3-dimethyl-2-oxo-1,2,3,4-tetrahydropyrido-[2,3-b]pyrazin-6-yl]amino}-N-(1-methylpiperidin-4-yl)benzenesulphonamide]",0.586 µM,0.075 µM,0.24 µM,0.197 µM
"C[C@@H]1C(=O)N(C)c2ccc(Nc3cccc(C(=O)NCCN(C)C)c3)nc2N1C1CCCC1 [Example 4, 3-{[(3R)-4-Cyclopentyl-1,3-dimethyl-2-oxo-1,2,3,4-tetrahydropyrido[2,3-b]pyrazin-6-yl]amino}-N-[2-(dimethylamino)ethyl]benzamide]",0.778 µM,0.144 µM,0.535 µM,0.249 µM
"C[C@@H]1C(=O)N(C)c2ccc(Nc3cccc(S(=O)(=O)NC4CCN(C)CC4)c3)nc2N1C1CCN(C(=O)OC(C)(C)C)CC1 [Example 57, tert-butyl 4-[(3R)-1,3-dimethyl-6-({3-[(1-methylpiperidin-4-yl)sulphamoyl]phenyl}-amino)-2-oxo-2,3-dihydro-pyrido[2,3-b]pyrazin-4(1H)-yl]piperidine-1-carboxylate]",0.531 µM,0.114 µM,0.193 µM,0.151 µM
C[C@@H]1C(=O)N(C)c2ccc(Nc3cccc(S(=O)(=O)NCCN(C)C)c3)nc2N1C1CCOCC1 [Example 21],0.626 µM,0.048 µM,0.237 µM,0.175 µM
"C[C@@H]1C(=O)N(C)c2ccc(Nc3cccc(S(=O)(=O)NC4CCN(C)CC4)c3)nc2N1C1CCOCC1 [Example 20, 3-{[(3R)-1,3-Dimethyl-2-oxo-4-(tetrahydro-2H-pyran-4-yl)-1,2,3,4-tetrahydropyrido[2,3-b]pyrazin-6-yl]amino}-N-(1-methylpiperidin-4-yl)benzenesulphonamide]",0.556 µM,0.058 µM,0.175 µM,0.19 µM
"C[C@@H]1C(=O)N(C)c2ccc(Nc3cccc(S(=O)(=O)N[C@H]4CC[C@H](N5CCN(CC6CC6)CC5)CC4)c3)nc2N1C1CCOCC1 [Example 35, N-{trans-4-[4-(cyclopropylmethyl)-piperazin-1-yl]cyclohexyl}-3-{[(3R)-1,3-dimethyl-2-oxo-4-(tetrahydro-2H-pyran-4-yl)-1,2,3,4-tetrahydropyrido[2,3-b]pyrazin-6-yl]amino}-benzenesulphonamide]",0.146 µM,0.026 µM,0.14 µM,0.023 µM
"C[C@@H]1C(=O)N(C)c2ccc(Nc3cccc(S(=O)(=O)NCCN(C)C)c3)nc2N1C1CCN(C(=O)OC(C)(C)C)CC1 [Example 59, tert-butyl 4-[(3R)-6-[(3-{[2-(dimethylamino)ethyl]-sulphamoyl}phenyl)amino]-1,3-dimethyl-2-oxo-2,3-dihydropyrido[2,3-b]pyrazin-4(1H)-yl]piperidine-1-carboxylate]",1.14 µM,0.156 µM,0.516 µM,0.297 µM
"C[C@@H]1C(=O)N(C)c2ccc(Nc3cccc(S(=O)(=O)N(C)C)c3)nc2N1C1CCOCC1 [Example 6, 3-{[(3R)-1,3-Dimethyl-2-oxo-4-(tetrahydro-2H-pyran-4-yl)-1,2,3,4-tetrahydropyrido[2,3-b]pyrazin-6-yl]amino}-N,N-dimethylbenzenesulphonamide]",0.071 µM,0.027 µM,0.053 µM,0.037 µM
"C[C@@H]1C(=O)N(C)c2ccc(Nc3cccc(S(=O)(=O)N4CC(F)(F)C4)c3)nc2N1C1CCN(C)CC1 [Example 29, (3R)-6-({3-[(3,3-Difluoroazetidin-1-yl)sulphonyl]phenyl}amino)-1,3-dimethyl-4-(1-methylpiperidin-4-yl)-3,4-dihydropyrido[2,3-b]pyrazin-2(1H)-one]",0.23 µM,0.029 µM,0.064 µM,0.041 µM

# Continued, in another order:
IC50 [1],IC50 [2],IC50 [3],Compound,IC50 [4]
0.491 µM,0.087 µM,0.157 µM,"C[C@@H]1C(=O)N(C)c2ccc(Nc3cccc(C(=O)NCCN4CCN(C)CC4)c3)nc2N1Cc1ccccc1 [Example 74, 3-{[(3R)-4-benzyl-1,3-dimethyl-2-oxo-1,2,3,4-tetrahydropyrido[2,3-b]pyrazin-6-yl]amino}-N-[2-(4-methylpiperazin-1-yl)ethyl]benzamide]",0.082 µM
0.396 µM,0.062 µM,0.25 µM,"C[C@@H]1C(=O)N(C)c2ccc(Nc3cccc(C(=O)N[C@H]4CC[C@H](N5CCN(CC6CC6)CC5)CC4)c3)nc2N1Cc1ccccc1 [Example 72, 3-{[(3R)-4-benzyl-1,3-dimethyl-2-oxo-1,2,3,4-tetrahydropyrido[2,3-b]pyrazin-6-yl]amino}-N-{trans-4-[4-(cyclo-propylmethyl)piperazin-1-yl]cyclohexyl}benzamide]",0.122 µM
0.478 µM,0.193 µM,0.287 µM,"CC(C)N1c2nc(Nc3cccc(C(=O)N[C@H]4CC[C@H](N5CCN(CC6CC6)CC5)CC4)c3)ccc2N(C)C(=O)[C@H]1C [Example 79, N-{trans-4-[4-(cyclo-propylmethyl)piperazin-1-yl]cyclohexyl}-3-{[(3R)-4-isopropyl-1,3-dimethyl-2-oxo-1,2,3,4-tetrahydropyrido[2,3-b]pyrazin-6-yl]amino}benzamide]",0.077 µM
0.316 µM,0.075 µM,0.223 µM,"COCCN1c2nc(Nc3cccc(S(=O)(=O)N4CCOCC4)c3)ccc2N(C)C(=O)[C@H]1C (stereo in doubt) [Example 111, (3R)-4-(2-methoxyethyl)-1,3-dimethyl-6-{[3-(morpholin-4-ylsulphonyl)phenyl]amino}-3,4-dihydropyrido[2,3-b]pyrazin-2(1H)-one]",0.106 µM
> 20 µM,0.03 µM,> 20 µM,"C[C@@H]1C(=O)N(C)c2ccc(Nc3cccc(S(=O)(=O)NC4CCN(C)CC4)c3)nc2N1C1CCNCC1 [Example 124, 3-{[(3R)-1,3-dimethyl-2-oxo-4-(piperidin-4-yl)-1,2,3,4-tetrahydropyrido[2,3-b]pyrazin-6-yl]amino}-N-(1-methylpiperidin-4-yl)benzenesulphonamide]",> 20 µM
1.18 µM,0.466 µM,0.41 µM,C[C@@H]1C(=O)N(C)c2ccc(Nc3cccc(C(=O)N[C@H]4CC[C@H](N5CCN(CC6CC6)CC5)CC4)c3)nc2N1c1ccc(F)cc1 [Example 93],0.8 µM
